Source: patent US20080027042A1, “Novel Aminopyridine Derivatives Having Aurora a Selective Inhibitory Action” (priority 2004, published 2008)
Where a name gives a salt, the structure may show the parent alone.

Columns and labels:
Aurora B = target: T1, Aurora B (Homo sapiens, UniProt Q96GD4); assay: Aurora B inhibitory action (33P-ATP kinase assay, Kemptide substrate); format: biochemical; conditions: 100 μM ATP, 30° C., 20 minutes
T1 construct: histidine tag (N); made in house; host or cells: Escherichia coli BL21-CodonPlus(DE3)-RIL
Text: Aurora B Inhibitory Action
(1) Purification of Aurora B
(§1) cDNA of Aurora B having histidine tag fused at the amino terminal was integrated into an expression vector, which was then highly expressed in Escherichia coli BL21-CodonPlus(DE3)-RIL cells. The Escherichia coli cells were recovered and solubilized, and then the histidine-tagged […] protein was adsorbed onto a nickel chelate column and eluted from the column with imidazole. The active fraction was desalted with a desalting column to give a pure enzyme.
(2) Measurement of Activity of Aurora B
For measurement of the activity of Aurora B, the substrate used was Kemptide (Lys-Arg-Arg-Ala-Ser-Lys-Gly) (SEQ.ED.NO.: 1), a synthetic peptide purchased from Sigma-Aldrich, Inc. [Certificate of analysis (Upstate, Inc.)].
Reaction was conducted by a partial modification of the method of activity measurement for Aurora A. The amount of the reaction liquid was 21.1 μL, and the composition of the reaction buffer (R2 buffer) was 50 mM Tris-hydrochloride buffer (pH 7.4)/15 mM magnesium acetate/0.2 mM ethylenediamine-N,N,N′,N′-tetraacetate (EDTA). To this, purified Aurora B, 100 μM of a substrate peptide, 100 μM of unlabeled adenosine triphosphate (ATP) and 1 μCi of [γ-^33P] labeled ATP (2,500 Ci/mmole or more) were added, and the mixture was reacted at 30° C. for 20 minutes. Then, 10 μL of 350 mM phosphate buffer was added to the reaction system to stop the reaction. The substrate peptide was adsorbed on a P81 paper filter 96-well plate and then washed with 130 mM phosphate buffer for several times. The radiation activity of the peptide was measured with a liquid scintillation counter. The [γ-^33P] labeled ATP was purchased from Amersham Biosciences Co., Ltd.
(§2) The compound to be tested was added to the reaction system such that a dilution series of the compound in dimethylsulfoxide was first prepared, and 1.1 μL of this solution was added. A control was provided by adding 1.1 μL of DMSO to the reaction system.

Aurora A = target: T2, Aurora A (Homo sapiens, UniProt O14965); assay: Aurora A inhibitory action (33P-ATP kinase assay, Kemptide substrate); format: biochemical; conditions: 20 μM ATP, 30° C., 20 minutes
T2 construct: histidine tag (N); made in house; host or cells: Escherichia coli BL21-CodonPlus(DE3)-RIL
T2 sequence (O14965 1-403): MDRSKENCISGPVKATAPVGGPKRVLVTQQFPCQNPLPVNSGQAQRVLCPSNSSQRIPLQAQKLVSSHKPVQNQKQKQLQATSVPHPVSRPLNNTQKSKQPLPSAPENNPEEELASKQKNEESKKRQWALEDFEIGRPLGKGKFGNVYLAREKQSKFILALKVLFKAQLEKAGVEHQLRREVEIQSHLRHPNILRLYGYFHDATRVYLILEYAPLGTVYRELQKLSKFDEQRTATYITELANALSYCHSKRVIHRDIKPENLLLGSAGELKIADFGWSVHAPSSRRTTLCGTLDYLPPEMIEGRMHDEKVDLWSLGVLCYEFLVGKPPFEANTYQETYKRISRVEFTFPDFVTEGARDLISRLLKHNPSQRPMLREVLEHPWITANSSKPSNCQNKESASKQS
Text: Aurora A Inhibitory Action
(1) Purification of Aurora A
as §1, with “A” for “B”, “BL2 1-CodonPlus(DE3)-RIL” for “BL21-CodonPlus(DE3)-RIL”
(2) Measurement of Activity of Aurora A
For measurement of the activity of Aurora A, the substrate used was Kemptide (Lys-Arg-Arg-Ala-Ser-Lys-Gly) (SEQ.ID.NO.: 1), a synthetic peptide purchased from Sigma-Aldrich, Inc. [Certificate of analysis (Upstate, Inc.)].
Reaction was conducted by a partial modification of a method by Upstate, Inc. [Kinase Profiler™ Assay Protocols]. The amount of the reaction liquid was 21.1 μL, and the composition of the reaction buffer (R2 buffer) was 50 mM Tris-hydrochloride buffer (pH 7.4)/15 mM magnesium acetate/0.2 mM ethylenediamine-N,N,N′,N′-tetraacetate (EDTA). To this, purified Aurora A, 100 μM of a substrate peptide, 20 μM of unlabeled adenosine triphosphate (ATP) and 0.5 μCi of [γ-^33P] labeled ATP (2,500 Ci/mmole or more) were added, and the mixture was reacted at 30° C. for 20 minutes. Then, 10 μL of 350 mM phosphate buffer was added to the reaction system to stop the reaction. The substrate peptide was adsorbed on a P81 paper filter 96-well plate and then washed with 130 mM phosphate buffer for several times. The radiation activity of the peptide was measured with a liquid scintillation counter. The [γ-^33P] labeled ATP was purchased from Amersham Biosciences Co., Ltd.
as §2

T1 sequence (Q96GD4 whole entry): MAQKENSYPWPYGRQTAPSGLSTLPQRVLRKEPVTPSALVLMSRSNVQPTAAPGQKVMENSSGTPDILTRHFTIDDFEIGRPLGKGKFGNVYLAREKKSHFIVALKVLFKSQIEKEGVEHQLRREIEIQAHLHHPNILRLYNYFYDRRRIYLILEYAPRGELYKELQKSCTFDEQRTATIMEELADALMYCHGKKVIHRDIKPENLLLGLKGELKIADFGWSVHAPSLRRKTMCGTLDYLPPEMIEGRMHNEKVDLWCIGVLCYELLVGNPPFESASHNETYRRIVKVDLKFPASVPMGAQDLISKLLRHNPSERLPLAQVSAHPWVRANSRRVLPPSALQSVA

SMILES	IC50 (Aurora B)	IC50 (Aurora A)
N#Cc1cnc(Nc2cccc(CN3CCN(C(=O)c4cccc(Cl)c4F)CC3)n2)s1 [Example 43]	460 nM	1.1 nM
O=C(c1cccc(Cl)c1Cl)N1CCN(Cc2cncc(Nc3cc[nH]n3)n2)CC1 [Example 45, 6-((4-(2,3-dichlorobenzoyl)piperazin-1-yl)methyl)-N-1H-pyrazol-3-ylpyrazin-2-amine]	4800 nM	2.5 nM
O=C(c1cccc(C(F)(F)F)c1F)N1C[C@@H]2C[C@H]1CN2Cc1cncc(Nc2cc[nH]n2)n1 [Example 47, 6-(((lS,4S)-5-(2-fluoro-3-(trifluoromethyl)benzoyl)-2,5-diazabicyclo[2.2.1]hept-2-yl)methyl)-N-1H-pyrazol-3-ylpyrazin-2-amine]	2200 nM	5.5 nM
O=C(c1cccc(C(F)(F)F)c1F)N1C[C@H]2C[C@@H]1CN2Cc1cncc(Nc2cc[nH]n2)n1 [Example 48, 6-(((1R,4R)-5-(2-fluoro-3-(trifluoromethyl)benzoyl)-2,5-diazabicyclo[2.2.1]hept-2-yl)methyl)-N-1H-pyrazol-3-ylpyrazin-2-amine]	2900 nM	2.8 nM
O=C(c1cccc(Br)c1F)N1CCN(Cc2cncc(Nc3cc[nH]n3)n2)CC1 [Example 49, 6-((4-(3-bromo-2-fluorobenzoyl)piperazin-1-yl)methyl)-N-1H-pyrazol-3-ylpyrazin-2-amine trifluoroacetate]	4400 nM	1.4 nM
O=C(c1cccc(C(F)(F)F)c1Cl)N1CCN(Cc2cncc(Nc3cc[nH]n3)n2)CC1 [Example 51, 6-((4-(2-chloro-3-(trifluoromethyl)benzoyl)piperazin-1-yl)methyl)-N-1H-pyrazol-3-ylpyrazin-2-amine trifluoroacetate]	930 nM	0.98 nM
O=C(c1cccc(C(F)(F)F)c1F)N1CCN(Cc2cncc(Nc3cc[nH]n3)n2)CC(O)C1 (stereo not shown) [Example 55, 6-((4-(2-fluoro-3-(trifluoromethyl)benzoyl)-6-hydroxy-1,4-diazepan-1-yl)methyl)-N-1H-pyrazol-3-ylpyrazin-2-arnine]	7400 nM	20 nM
O=C(c1cccc(C(F)(F)F)c1F)N1CCN(Cc2cncc(Nc3ncns3)n2)CC1 [Example 57, 6-((4-(2-fluoro-(3-trifluoromethyl)benzoyl)piperazin-1-yl)methyl)-N-1,2,4-thiadiazol-5-ylpyrazin-2-amine]	28000 nM	15 nM
O=C(c1ccoc1)N1CCN(Cc2cccc(Nc3ncc(Cl)s3)n2)CC1 [Example 61, 6-((4-(3-furoyl)piperazin-1-yl)methyl)-N-(5-chlorothiazol-2-yl)pyridin-2-amine]	530 nM	17 nM
O=C(c1cccc(Cl)c1F)N1CCCN(Cc2cccc(Nc3nccs3)n2)CC1 [Example 63, 6-((4-(3-chloro-2-fluorobenzoyl)-1,4-diazepan-1-yl)methyl)-N-thiazol-2-ylpyridin-2-amine]	570 nM	1.3 nM
O=C(c1cnccn1)N1CCN(Cc2cccc(Nc3ncc(Cl)s3)n2)CC1 [Example 64, 6-((4-(pyrazin-2-ylcarbonyl)piperazin-1-yl)methyl)-N-(5-chlorothiazol-2-yl)pyridin-2-amine]	2500 nM	110 nM
O=C(c1ccsc1)N1CCN(Cc2cccc(Nc3ncc(Cl)s3)n2)CC1 [Example 65, 6-((4-(3-thienylcarbonyl)piperazin-1-yl)methyl)-N-(5-chlorothiazol-2-yl)pyridin-2-amine]	160 nM	2.4 nM
O=C(c1nccs1)N1CCN(Cc2cccc(Nc3ncc(Cl)s3)n2)CC1 [Example 67, 6-((4-(thiazol-2-ylcarbonyl)piperazin-1-yl)methyl)-N-(5-chlorothiazol-2-yl)pyridin-2-amine]	320 nM	17 nM
Cn1ccc(C(=O)N2CCN(Cc3cccc(Nc4ncc(Cl)s4)n3)CC2)n1 [Example 69, 6-((4-((1-methyl-1H-pyrazol-3-yl)carbonyl)piperazin-1-yl)methyl)-N-(5-chlorothiazol-2-yl)pyridin-2-amine]	920 nM	32 nM
N#Cc1ccccc1C(=O)N1CCN(Cc2cccc(Nc3ncc(Cl)s3)n2)CC1 [Example 70, 6-((4-(2-cyanobenzoyl)piperazin-1-yl)methyl)-N-(5-chlorothiazol-2-yl)pyridin-2-amine]	96 nM	2.4 nM

Results, then the compound that gave them:

IC50 (Aurora B)	IC50 (Aurora A)	SMILES
170 nM	27 nM	CC(=O)Nc1cccc(C(=O)N2CCN(Cc3cccc(Nc4ncc(Cl)s4)n3)CC2)c1 [Example 72, 6-((4-(3-(acetylamino)benzoyl)piperazin-1-yl)methyl)-N-(5-chlorothiazol-2-yl)pyridin-2-amine]
850 nM	47 nM	CS(=O)(=O)c1cccc(C(=O)N2CCN(Cc3cccc(Nc4ncc(Cl)s4)n3)CC2)c1 [Example 74, 6-((4-(3-(methanesulfonyl)benzoyl)piperazin-1-yl)methyl)-N-(5-chlorothiazol-2-yl)pyridin-2-amine]
47 nM	0.44 nM	O=C(c1cccc(Cl)c1Cl)N1CCN(Cc2cccc(Nc3ncc(Cl)s3)n2)CC1 [Example 76, 6-((4-(2,3-dichlorobenzoyl)piperazin-1-yl)methyl)-N-(5-chlorothiazol-2-yl)pyridin-2-amine]
240 nM	2 nM	O=C(c1cccnc1F)N1CCN(Cc2cccc(Nc3ncc(Br)s3)n2)CC1 [Example 78, 6-((4-((2-fluoropyridin-3-yl)carbonyl)piperazin-1-yl)methyl)-N-(5-bromothiazol-2-yl)pyridin-2-amine]
2200 nM	26 nM	O=C(c1ccnc(F)c1)N1CCN(Cc2cccc(Nc3ncc(Br)s3)n2)CC1 [Example 79, 6-((4-(2-fluoroisonicotinoyl)piperazin-1-yl)methyl)-N-(5-bromothiazol-2-yl)pyridin-2-amine]
300 nM	0.33 nM	O=C(c1cccc(Cl)c1F)N1CCN(Cc2cc(Br)cc(Nc3nccs3)n2)CC1 [Example 81, 4-bromo-6-((4-(3-chloro-2-fluorobenzoyl)piperazin-1-yl)methyl)-N-thiazol-2-ylpyridin-2-amine]
210 nM	0.51 nM	COC(=O)c1cc(CN2CCN(C(=O)c3cccc(Cl)c3F)CC2)nc(Nc2nccs2)c1 [Example 82, methyl 2-((4-(3-chloro-2-fluorobenzoyl)piperazin-1-yl)methyl)-6-(thiazol-2-ylamino)isonicotinate]
800 nM	0.64 nM	O=C(O)c1cc(CN2CCN(C(=O)c3cccc(Cl)c3F)CC2)nc(Nc2nccs2)c1 [Example 83, 2-((4-(3-chloro-2-fluorobenzoyl)piperazin-1-yl)methyl)-6-(thiazol-2-ylamino)isonicotinic acid]
